Laboratory results taken from patent US12662489B2 (Sitryx Therapeutics Limited, priority 2023, dated 2026).

Experiments:
[1] = target: T1, MTHFD2 recombinant human enzyme (Homo sapiens, UniProt P13995); assay: MTHFD2 inhibition assay (NAD(P)H-Glo luminescence); conditions: for MTHFD1/MTHFD2 IC50 ratio: selectivity of MTHFD2 inhibition over MTHFD1, band
T1 sequence (P13995 36-350): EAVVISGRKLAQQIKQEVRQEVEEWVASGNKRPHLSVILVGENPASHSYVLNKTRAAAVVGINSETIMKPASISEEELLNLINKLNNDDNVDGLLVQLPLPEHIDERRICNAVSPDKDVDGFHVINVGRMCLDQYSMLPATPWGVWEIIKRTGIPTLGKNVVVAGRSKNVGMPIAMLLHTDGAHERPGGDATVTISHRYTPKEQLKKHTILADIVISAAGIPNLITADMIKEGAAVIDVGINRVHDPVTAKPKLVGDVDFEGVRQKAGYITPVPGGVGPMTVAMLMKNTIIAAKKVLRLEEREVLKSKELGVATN

human CD4+ T cells = assay: Human CD4+ T-cell proliferation assay (CFSE, CD3/28 beads); conditions: read-out: Proliferation IC50
[2] = target: T2, MTHFD1 recombinant human enzyme (Homo sapiens, UniProt P11586); assay: MTHFD1 inhibition assay (NAD(P)H-Glo luminescence); conditions: MTHFD1 IC50, recombinant human enzyme 200 nM, NADP, band
T2 sequence (P11586 2-291 limits assumed): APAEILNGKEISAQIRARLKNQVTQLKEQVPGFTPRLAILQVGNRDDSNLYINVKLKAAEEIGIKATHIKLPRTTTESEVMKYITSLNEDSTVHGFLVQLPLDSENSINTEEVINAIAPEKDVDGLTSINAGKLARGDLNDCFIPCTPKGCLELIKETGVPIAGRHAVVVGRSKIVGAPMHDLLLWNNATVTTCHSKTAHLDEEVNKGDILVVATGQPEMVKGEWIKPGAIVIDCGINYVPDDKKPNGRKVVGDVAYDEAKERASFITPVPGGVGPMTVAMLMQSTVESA

## COC[C@H]1CN(c2ccc3c4c(c(=O)oc3c2C)CN(C(=O)c2ccc(C(=O)NS(=O)(=O)C3(C)CC3)c(N3CCCC3)c2)CC4)CCN1C [Example 15, (R)-4-(8-(3-(methoxymethyl)-4-methylpiperazin-1-yl)-7-methyl-5-oxo-1,3,4,5-tetrahydro-2H-chromeno[3,4-c]pyridine-3-carbonyl)-N-((1-methylcyclopropyl)sulfonyl)-2-(pyrrolidin-1-yl)benzamide]
[1]
  IC50: 10 to 100 nM
  MTHFD1/MTHFD2 IC50 ratio: F (<3)
Human CD4+ T cells
  IC50: 1 to 10 nM
[2]
  IC50: 10 to 100 nM

## COC[C@H]1CN(c2ccc3c4c(c(=O)oc3c2C)CN(C(=O)c2cc(F)c(C(=O)NS(=O)(=O)C3(C)CC3)c(N3C5CCC3CC5)c2)CC4)CCN1C [Example 22, (R)-2-(7-azabicyclo[2.2.1]heptan-7-yl)-6-fluoro-4-(8-(3-(methoxymethyl)-4-methylpiperazin-1-yl)-7-methyl-5-oxo-1,3,4,5-tetrahydro-2H-chromeno[3,4-c]pyridine-3-carbonyl)-N-((1-methylcyclopropyl)sulfonyl)benzamide]
[1]
  IC50: 1 to 10 nM
  MTHFD1/MTHFD2 IC50 ratio: F (<3)
Human CD4+ T cells
  IC50: 10 to 30 nM
[2]
  IC50: 1 to 10 nM

## COC[C@H]1CN(c2ccc3c4c(c(=O)oc3c2C)CN(C(=O)c2ccc(C(=O)NS(=O)(=O)N(C)C)c(OC3CCC3)c2F)CC4)CCN1C [Example 50, (R)-2-cyclobutoxy-N-(N,N-dimethylsulfamoyl)-3-fluoro-4-(8-(3-(methoxymethyl)-4-methylpiperazin-1-yl)-7-methyl-5-oxo-1,3,4,5-tetrahydro-2H-chromeno[3,4-c]pyridine-3-carbonyl)benzamide]
[1]
  IC50: 1 to 10 nM
  MTHFD1/MTHFD2 IC50 ratio: F (<3)
Human CD4+ T cells
  IC50: 1 to 10 nM
[2]
  IC50: 1 to 10 nM

## COC[C@H]1CN(c2cc(C)c3c4c(c(=O)oc3c2C)CN(C(=O)c2ccc(C(=O)NS(=O)(=O)N3CCCC3)c(N3CCCC3)c2F)CC4)CCN1C [Example 98, (R)-3-fluoro-4-(8-(3-(methoxymethyl)-4-methylpiperazin-1-yl)-7,10-dimethyl-5-oxo-1,3,4,5-tetrahydro-2H-chromeno[3,4-c]pyridine-3-carbonyl)-2-(pyrrolidin-1-yl)-N-(pyrrolidin-1-ylsulfonyl)benzamide]
[1]
  IC50: 1 to 10 nM
  MTHFD1/MTHFD2 IC50 ratio: F (<3)
Human CD4+ T cells
  IC50: 10 to 30 nM
[2]
  IC50: 10 to 100 nM

## COC[C@H]1CN(c2cc(C)c3c4c(c(=O)oc3c2C)CN(C(=O)c2cc(OC3CCCC3)c(C(=O)NS(=O)(=O)C3(C)CC3)c(C(F)(F)F)c2)CC4)CCN1C [Example 128, (R)-2-(cyclopentyloxy)-4-(8-(3-(methoxymethyl)-4-methylpiperazin-1-yl)-7,10-dimethyl-5-oxo-1,3,4,5-tetrahydro-2H-chromeno[3,4-c]pyridine-3-carbonyl)-N-((1-methylcyclopropyl)sulfonyl)-6-(trifluoromethyl)benzamide]
[1]
  IC50: 10 to 100 nM
  MTHFD1/MTHFD2 IC50 ratio: H (>9.0 to 30)
Human CD4+ T cells
  IC50: 1000 to 5000 nM
[2]
  IC50: 1000 to 5000 nM

## CCOc1cc(C(=O)N2CCc3c(c(=O)oc4c(C)c(N5CCN(C)[C@@H](COC)C5)cc(Cl)c34)C2)c(F)cc1C(=O)NS(=O)(=O)N1C2CCC1CC2 [Example 317, (R)-N-((7-azabicyclo[2.2.1]heptan-7-yl)sulfonyl)-4-(10-chloro-8-(3-(methoxymethyl)-4-methylpiperazin-1-yl)-7-methyl-5-oxo-1,3,4,5-tetrahydro-2H-chromeno[3,4-c]pyridine-3-carbonyl)-2-ethoxy-5-fluorobenzamide]
[1]
  IC50: 10 to 100 nM
  MTHFD1/MTHFD2 IC50 ratio: J (>30)
[2]
  IC50: 100 to 1000 nM

## COC[C@H]1CN(c2cc(Cl)c3c4c(c(=O)oc3c2C)CN(C(=O)c2cc(N(C)C)c(C(=O)NS(=O)(=O)N(C)C3CC3)cc2F)CC4)CCN1C [Example 323, (R)-4-(10-chloro-8-(3-(methoxymethyl)-4-methylpiperazin-1-yl)-7-methyl-5-oxo-1,3,4,5-tetrahydro-2H-chromeno[3,4-c]pyridine-3-carbonyl)-N-(N-cyclopropyl-N-methylsulfamoyl)-2-(dimethylamino)-5-fluorobenzamide]
[1]
  IC50: 1 to 10 nM
  MTHFD1/MTHFD2 IC50 ratio: J (>30)
[2]
  IC50: 100 to 1000 nM
